According to ChEMBL document CHEMBL5543147, “Discovery and Characterization of a Novel Cereblon-Recruiting PRC1 Bridged PROTAC Degrader” (J Med Chem, 2024):
Active and inactive are the calls of the source. No cut-off for these calls is given here.

Key:
[1] = target: Cereblon/Ikaros (Homo sapiens) (UniProt Q96SW2+Q13422); assay: PROTAC activity at CRBN/IKZF1 in human K562 cells assessed as degradation of IKZF1 protein at 0.1 to 10 uM incubated for 4 hrs by Western blotting analysis; type: cell-based; conditions: dose 0.1-10 µM
[2] = target: Protein cereblon/Polycomb complex protein BMI-1 (Homo sapiens, UniProt Q96SW2+P35226); assay: PROTAC activity at CRBN/BIM1 in human PC-3M cells assessed as degradation of BMI1 protein expression at 5 uM incubated for 24 hrs by Western blotting analysis; type: cell-based
Chain of Protein cereblon/Polycomb complex protein BMI-1 (P35226 whole entry, looked up): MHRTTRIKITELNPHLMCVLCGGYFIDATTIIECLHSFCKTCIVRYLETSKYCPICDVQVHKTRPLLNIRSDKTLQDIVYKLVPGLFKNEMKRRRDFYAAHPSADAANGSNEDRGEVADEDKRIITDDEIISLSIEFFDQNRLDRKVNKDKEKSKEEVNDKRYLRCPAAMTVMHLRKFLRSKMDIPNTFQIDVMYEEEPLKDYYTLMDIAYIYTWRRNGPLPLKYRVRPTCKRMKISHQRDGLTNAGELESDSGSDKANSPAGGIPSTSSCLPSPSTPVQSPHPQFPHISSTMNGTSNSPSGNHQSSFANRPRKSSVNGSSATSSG
Chain of Protein cereblon/Polycomb complex protein BMI-1 (Q96SW2 whole entry, looked up): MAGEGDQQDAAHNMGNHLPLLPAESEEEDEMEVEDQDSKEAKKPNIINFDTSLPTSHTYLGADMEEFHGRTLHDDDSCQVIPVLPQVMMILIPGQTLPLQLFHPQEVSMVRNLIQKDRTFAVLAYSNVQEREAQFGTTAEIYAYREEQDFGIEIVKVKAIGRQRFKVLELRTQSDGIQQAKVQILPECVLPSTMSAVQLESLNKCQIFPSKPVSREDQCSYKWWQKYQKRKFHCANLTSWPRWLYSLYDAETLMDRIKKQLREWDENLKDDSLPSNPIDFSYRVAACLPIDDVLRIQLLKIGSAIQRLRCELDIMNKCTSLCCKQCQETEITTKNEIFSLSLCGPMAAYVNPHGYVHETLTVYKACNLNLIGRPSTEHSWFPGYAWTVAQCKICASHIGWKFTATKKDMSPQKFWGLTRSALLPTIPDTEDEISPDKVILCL

PNT2 = assay: Cytotoxicity against human PNT2 cells assessed as inhibition of cell growth measured upto 15 uM incubated for 5 days by WST-8 assay; type: toxicity, cell-based; conditions: pnt2, 120 h, time 5 day

- Activity [1]: inactive
- Activity [2]: Active
Compound: O=C(CNc1cccc2c1C(=O)N(C1CCC(=O)NC1=O)C2=O)NCCCCN1CCN(c2ccc(-c3cnc(NCc4ccco4)n4cnnc34)cc2)CC1 (stereo not drawn)
- Activity (PNT2): Non-Toxic
